Experimental data from US11945799B2, “4-ethynylpyridine derivatives useful as GCN2 inhibitors” (IP2IPO INNOVATIONS LIMITED, priority 2020, dated 2024).
Read-outs that look alike come from different tables or passages of the source.

Columns and labels:
[1] = biological target: T1, full-length human GCN2 enzyme (Homo sapiens, UniProt Q9P2K8); test: GCN2 enzyme inhibition, LanthaScreen TR-FRET Kinase Activity assay (10 μM and 300 μM ATP); assay type: biochemical; conditions: mean of replicate assays
T1 construct: purchased Carna Bioscience
Method: Biological and Pharmacokinetic Testing (a) GCN2 Enzyme Inhibition (10 μM and 300 μM Assays) Assay Protocol Overview:
The inhibitory activity of the Example compounds towards GCN2 enzyme was measured according to the description below, using a LanthaScreen TR-FRET (Time Resolved Fluorescence Resonance Energy Transfer) Kinase Activity assay distributed by ThermoFisher Scientific.
The full-length human GCN2 enzyme (UniProt accession number Q9P2K8) was used for all experiments (Carna Bioscience). The TR-FRET pair was composed of GFP-eIF2α and LanthaScreen Terbium-labeled anti-peIF2α (pSer52) Antibody.
Each example compound was dissolved in DMSO (0.15 mM) and dispensed in a 384-well plate by a D300 dispenser (Tecan) to a final concentration range 3000-0.13 nM using the logarithmic dilution mode in 2 replicates. Full inhibition (3000 nM commercial reference inhibitor) and DMSO vehicle control wells were also included on the same plate. All volumes were normalized to the final DMSO concentration of 2% of the reaction volume. Next, 5 μL of H2O was added to each well of the plate.
The enzyme mixture was prepared to obtain the following concentrations: • GCN2—30 nM • unloaded tRNA—0.3 nM • HEPES (pH=7.0)—100 mM • MgCl2—20 mM; MnCl2—10 mM
The mixture was applied by adding 5 μL to each well of the plate. The enzyme and the tested compound were then incubated at room temperature for 20 min while shaking at 450 rpm.
The substrate mixture was prepared to obtain the following concentrations: • GFP-eIF2α—240 nM • ATP—900 μM or 30 μM • HEPES (pH=7.0)—50 mM • MgCl2—10 mM • MnCl2—5 mM.
The mixture was applied by adding 5 μL to each well of the plate. Thus, the final concentrations of the 15 μL reaction mixture were as follows: • GCN2—10 nM • unloaded tRNA—0.1 nM • GFP-eIF2α—80 nM • ATP—300 μM or 10 μM • HEPES (1 M, pH=7.0)—50 mM • MgCl2—10 mM • MnCl2—5 mM.
The reaction was allowed to proceed at room temperature for 30 min while shaking at 450 rpm.
The antibody mixture was prepared to obtain the following concentrations: • Na2EDTA·2H2O—40 mM, in TR-FRET Dilution Buffer (Life technologies) • Tb—anti-peIF2a antibodies—4 nM.
The mixture was applied by adding 15 μL to each well. The plate was then incubated at room temperature for 60 min while shaking at 450 rpm and then read using Tecan Spark reader using specific TR-FRET filters.
The analysis of the GFP/Tb fluorescence results was conducted with GraphPad Prism to determine IC50 for each of the example compounds using 4-parameter model: log(inhibitor) vs. response-variable slope. IC50 and K, values were calculated in the usual way. The assay was carried out between 1 and 15 times. The results in the table below are the mean results from replicate assays for the compound in question, where applicable.

[2] = Kinetic solubility in PBS buffer pH 7.4; assay type: physicochemical; conditions: aqueous buffer, kinetic from dmso stock; PBS buffer pH 7.4, 90 minutes at room temperature, from 10 mM DMSO stock
Method: The kinetic solubility assay investigates a solubility based on the amount of material which remains in solution after a precipitation process. […] Assay is performed using Multiscreen Vacuum Manifold. A buffer of interest (in standard protocol PBS buffer at pH=7.4 is used) is spiked with stock solution and incubated for 90 minutes at room temperature. After that time solution/suspension is filtrated. The concentration of each compound is determined on the base of prepared calibration curve using UV-VIS spectrophotometry method. The assay is made in triplicate.
Buffer of interest: 0.24 g of KH2PO4, 1.44 g of Na2HPO4, 0.2 g of KCl and 8 g NaCl and dissolve in 1 L distilled H2O; adjust pH to appropriate value (pH 7.4). 190 μl of buffer of interest was dispensed into the wells of a 96 well filter plate, followed by 10 μl of compound (10 mM stock solution in DMSO). The plate was shaken gently at room temperature for 90 minutes at 500 rpm using a BioSan, Plate Shaker-Thermostat, PST-60 HL-4. After 90 minutes, the plate was filtered using a vacuum manifold and vacuum pump. 100 μl of each filtrate and 100 μl acetonitrile was transferred to a 96 well UV-visible light transparent plate and the UV-visible absorption spectrum was measured using a Biotek Synergy 2 multiplate reader from 250-500 nm, interval range 10 nm. The amount of test compound was calculated using a calibration curve prepared by serial dilution of compounds in equivalent amounts of DMSO and acetonitrile.

[3] = read-out: GCN2 IC50 (nM) 300 uM ATP, 300 uM ATP
[4] = read-out: GCN2 Ki (nM) 300 uM ATP, 300 uM ATP
[5] = read-out: GCN2 IC50 (nM) 10 uM ATP, 10 uM ATP
[6] = read-out: GCN2 Ki (nM) 10 uM ATP, 10 uM ATP

T1 sequence (Q9P2K8 whole entry): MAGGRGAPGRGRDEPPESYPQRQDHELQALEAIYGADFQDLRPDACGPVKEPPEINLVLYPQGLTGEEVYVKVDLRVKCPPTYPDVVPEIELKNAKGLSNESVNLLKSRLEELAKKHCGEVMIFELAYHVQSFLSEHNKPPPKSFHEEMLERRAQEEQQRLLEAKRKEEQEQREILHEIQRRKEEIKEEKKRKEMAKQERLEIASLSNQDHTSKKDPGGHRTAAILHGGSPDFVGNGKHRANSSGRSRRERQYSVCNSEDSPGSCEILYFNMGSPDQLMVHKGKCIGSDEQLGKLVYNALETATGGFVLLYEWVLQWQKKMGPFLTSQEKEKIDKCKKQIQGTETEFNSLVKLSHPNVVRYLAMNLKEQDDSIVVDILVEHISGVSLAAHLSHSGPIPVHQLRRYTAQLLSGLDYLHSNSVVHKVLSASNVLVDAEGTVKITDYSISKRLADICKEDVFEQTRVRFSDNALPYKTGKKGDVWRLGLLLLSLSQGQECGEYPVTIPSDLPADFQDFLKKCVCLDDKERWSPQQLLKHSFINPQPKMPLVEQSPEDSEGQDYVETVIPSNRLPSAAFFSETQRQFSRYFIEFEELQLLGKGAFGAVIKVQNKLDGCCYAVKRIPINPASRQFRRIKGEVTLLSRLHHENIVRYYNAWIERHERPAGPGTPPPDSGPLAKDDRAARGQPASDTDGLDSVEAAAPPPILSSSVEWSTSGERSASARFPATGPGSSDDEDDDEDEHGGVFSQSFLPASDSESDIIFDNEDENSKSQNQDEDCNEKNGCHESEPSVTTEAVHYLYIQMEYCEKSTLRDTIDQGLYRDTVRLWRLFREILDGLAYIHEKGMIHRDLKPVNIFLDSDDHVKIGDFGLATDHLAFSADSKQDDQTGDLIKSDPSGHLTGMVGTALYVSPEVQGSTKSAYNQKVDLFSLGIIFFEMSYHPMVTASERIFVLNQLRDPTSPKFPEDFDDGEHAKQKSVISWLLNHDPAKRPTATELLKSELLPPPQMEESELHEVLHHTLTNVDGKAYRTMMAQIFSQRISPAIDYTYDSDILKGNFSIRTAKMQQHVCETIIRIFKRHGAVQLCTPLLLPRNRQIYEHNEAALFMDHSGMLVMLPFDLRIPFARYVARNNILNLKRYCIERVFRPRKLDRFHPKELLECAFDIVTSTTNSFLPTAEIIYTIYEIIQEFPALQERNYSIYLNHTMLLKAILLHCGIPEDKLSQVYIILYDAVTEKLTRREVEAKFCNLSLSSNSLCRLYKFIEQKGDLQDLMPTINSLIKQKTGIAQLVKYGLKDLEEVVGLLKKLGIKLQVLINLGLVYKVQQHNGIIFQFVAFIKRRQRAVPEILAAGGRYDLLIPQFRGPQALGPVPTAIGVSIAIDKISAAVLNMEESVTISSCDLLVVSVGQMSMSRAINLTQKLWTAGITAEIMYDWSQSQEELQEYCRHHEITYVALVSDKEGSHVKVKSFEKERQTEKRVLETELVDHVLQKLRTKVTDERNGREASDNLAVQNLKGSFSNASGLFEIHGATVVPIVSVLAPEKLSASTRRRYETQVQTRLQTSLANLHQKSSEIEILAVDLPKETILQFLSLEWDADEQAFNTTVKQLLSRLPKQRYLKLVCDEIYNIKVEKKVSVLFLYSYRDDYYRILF

| Compound | IC50 [1, 3] | Ki [1, 4] | solubility kinetic at 90 min [2] | IC50 [1, 5] | Ki [1, 6] |
| --- | --- | --- | --- | --- | --- |
| COc1ncc(Cl)cc1S(=O)(=O)Nc1nccc(C#Cc2cnc3ccnn3c2)c1F [Example 30, 5-chloro-N-[3-fluoro-4-(2-{pyrazolo[1,5-a]pyrimidin-6-yl}ethynyl)pyridin-2-yl]-2-methoxypyridine-3-sulfonamide] | 160 nM | 2.4 nM | > 245 µg/mL |  |  |
| O=S(=O)(Nc1nccc(C#Cc2cnc3[nH]ncc3c2)c1F)c1cc(Cl)ccc1Cl [Example 14, 2,5-dichloro-N-[3-fluoro-4-(2-{1H-pyrazolo[3,4-b]pyridin-5-yl}ethynyl)pyridin-2-yl]benzene-1-sulfonamide] | 236 nM | 3.6 nM | 24.7 µg/mL |  |  |
| COc1ncc(Cl)cc1S(=O)(=O)Nc1nccc(C#Cc2cncc3c2cnn3C)c1F [Example 20, 5-chloro-N-[3-fluoro-4-(2-{1-methyl-1H-pyrazolo[3,4-c]pyridin-4-yl}ethynyl)pyridin-2-yl]-2-methoxypyridine-3-sulfonamide] | 324 nM | 4.9 nM | 70.6 µg/mL | 14.5 nM | 4.6 nM |
| COc1ncc(Cl)cc1S(=O)(=O)Nc1nccc(C#Cc2cnc(N)nc2)c1Cl [Example 2, N-{4-[2-(2-aminopyrimidin-5-yl)ethynyl]-3-chloropyridin-2-yl}-5-chloro-2-methoxypyridine-3-sulfonamide] | 79 nM | 1.2 nM | 226 µg/mL | 8.1 nM | 2.6 nM |
| COc1ncc(Cl)cc1S(=O)(=O)Nc1nccc(C#Cc2cnc3[nH]c(=O)n(C)c3c2)c1F [Example 36, 5-chloro-N-[3-fluoro-4-(2-{1-methyl-2-oxo-1H,2H,3H-imidazo[4,5-b]pyridin-6-yl}ethynyl)pyridin-2-yl]-2-methoxypyridine-3-sulfonamide] | 182 nM | 2.8 nM | 240 µg/mL |  |  |
| COc1ncc(Cl)cc1S(=O)(=O)Nc1nccc(C#Cc2cnn3cccnc23)c1F [Example 31, 5-chloro-N-[3-fluoro-4-(2-{pyrazolo[1,5-a]pyrimidin-3-yl}ethynyl)pyridin-2-yl]-2-methoxypyridine-3-sulfonamide] | 98.9 nM | 1.5 nM | > 243 µg/mL |  |  |
| COc1ccc(Cl)cc1S(=O)(=O)Nc1nccc(C#Cc2cnc(N)nc2)c1F [Example 13, N-{4-[2-(2-aminopyrimidin-5-yl)ethynyl]-3-fluoropyridin-2-yl}-5-chloro-2-methoxybenzene-1-sulfonamide] | 611 nM | 9.3 nM | 109 µg/mL |  |  |
| COc1ncc(Cl)cc1S(=O)(=O)Nc1nccc(C#Cc2cnc(N)c3nccnc23)c1F [Example 38, N-[4-(2-{5-aminopyrido[3,4-b]pyrazin-8-yl}ethynyl)-3-fluoropyridin-2-yl]-5-chloro-2-methoxypyridine-3-sulfonamide] | 55.3 nM | 0.8 nM | 245 µg/mL |  |  |
| COc1ncc(Cl)cc1S(=O)(=O)Nc1nccc(C#Cc2cnc(N)c3ncccc23)c1F [Example 4, N-{4-[2-(8-amino-1,7-naphthyridin-5-yl)ethynyl]-3-fluoropyridin-2-yl}-5-chloro-2-methoxypyridine-3-sulfonamide] | 17.6 nM | 0.3 nM | 29.5 µg/mL | 2.9 nM | 0.9 nM |
| COc1ncc(Cl)cc1S(=O)(=O)Nc1nccc(C#Cc2cncc3ncn(C)c23)c1F [Example 18, 5-chloro-N-[3-fluoro-4-(2-{1-methyl-1H-imidazo[4,5-c]pyridin-7-yl}ethynyl)pyridin-2-yl]-2-methoxypyridine-3-sulfonamide] | 365 nM | 5.6 nM | 24.3 µg/mL | 11.3 nM | 3.6 nM |
| COc1ncc(Cl)cc1S(=O)(=O)Nc1nccc(C#Cc2cncc3[nH]ncc23)c1F [Example 21, 5-chloro-N-[3-fluoro-4-(2-{1H-pyrazolo[3,4-c]pyridin-4-yl}ethynyl)pyridin-2-yl]-2-methoxypyridine-3-sulfonamide] | 158 nM | 2.4 nM | 221 µg/mL |  |  |
